Reference: patent publication US20190375708A1 (VenatoRx Pharmaceuticals, Inc., priority 2018, published 2019)

Assays:
[1] = In vitro cytotoxicity assay (MTT cell viability) in HepG2 cells; type: cell-based, human; conditions: human
Outline: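 HepG2 cells incubated 7 days at 37 °C, 5% CO2 with compounds from 30 μM to 1.0 nM (8 half-log dilutions). Viability read as MTT formazan absorbance at 492 nm, normalised to vehicle controls; CC50 from 4-parameter non-linear regression.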

[2] = tested on: HBV replication in HepAD38 cells; assay: Anti-HBV replication assay in HepAD38 cells (QPCR of extracellular HBV DNA); type: cell-based, HBV (genotype D, serotype ayw); conditions: Hepatitis B virus, 168 h, 7 days incubation, extracellular HBV DNA by QPCR, read-out: Anti-HBV EC50
Outline: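 HepAD38 cells (HepG2 carrying a tet-repressible HBV genotype D genome) were seeded in tetracycline-free medium and treated next day with compound […] for 7 days. Supernatant HBV DNA was measured by QPCR against a standard curve; EC50 came from 4-parameter fits of inhibition versus DMSO control.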

CC(=O)N1CC[C@H](NC(=O)C(=O)c2c(C)c(C(=O)Nc3ccc(F)c(C)c3)c(C)n2C)C1 [Example 666, (S)-5-(2-((1-acetylpyrrolidin-3-yl)amino)-2-oxoacetyl)-N-(4-fluoro-3-methylphenyl)-1,2,4-trimethyl-1H-pyrrole-3-carboxamide]
CC50 at 7 days [1]: > 30 µM
EC50 [2]: < 50 nM

Cc1c(C(=O)Nc2ccc(F)c(F)c2)c(C)n(C)c1C(=O)C(=O)Nc1ccc(F)nc1 [Example 297, N-(3,4-difluorophenyl)-5-(2-((6-fluoropyridin-3-yl)amino)-2-oxoacetyl)-1,2,4-trimethyl-1H-pyrrole-3-carboxamide]
CC50 at 7 days [1]: 5 to 30 µM
EC50 [2]: < 50 nM

Cc1cc(NC(=O)c2c(C)c(C(=O)C(=O)NC[C@H](C)O)n(C)c2C)ccc1F [Example 218, (S)-N-(4-fluoro-3-methylphenyl)-5-(2-((2-hydroxypropyl)amino)-2-oxoacetyl)-1,2,4-trimethyl-1H-pyrrole-3-carboxamide]
CC50 at 7 days [1]: 5 to 30 µM
EC50 [2]: < 50 nM

Cc1cc(NC(=O)c2c(C)c(C(=O)C(=O)NC(C)(C)c3nc(CN(C)C)no3)n3c2CCCC3)ccc1F [Example 437, 3-(2-((2-(3-((dimethylamino)methyl)-1,2,4-oxadiazol-5-yl)propan-2-yl)amino)-2-oxoacetyl)-N-(4-fluoro-3-methylphenyl)-2-methyl-5,6,7,8-tetrahydroindolizine-1-carboxamide]
CC50 at 7 days [1]: > 30 µM
EC50 [2]: 50 to 499 nM

Cc1noc(C2(NC(=O)C(=O)c3c(C)c(C(=O)Nc4ccc(F)c(C)c4)c(C)n3CCF)CC2)n1 [Example 203, N-(4-fluoro-3-methylphenyl)-1-(2-fluoroethyl)-2,4-dimethyl-5-(2-((1-(3-methyl-1,2,4-oxadiazol-5-yl)cyclopropyl)amino)-2-oxoacetyl)-1H-pyrrole-3-carboxamide]
CC50 at 7 days [1]: > 30 µM
EC50 [2]: < 50 nM

COc1c(C(=O)Nc2ccc(F)c(F)c2)c(C)n(C)c1C(=O)C(=O)NC1(C(F)(F)F)CC1 [Example 377, N-(3,4-difluorophenyl)-4-methoxy-1,2-dimethyl-5-(2-oxo-2-((1-(trifluoromethyl)cyclopropyl)amino)acetyl)-1H-pyrrole-3-carboxamide]
CC50 at 7 days [1]: > 30 µM
EC50 [2]: < 50 nM

Cc1cc(NC(=O)c2c(C)c(C(=O)C(=O)N[C@H]3C[C@H](O)C3)n(C)c2C)ccc1F [Example 129, N-(4-fluoro-3-methylphenyl)-5-(22-(((1r,3r)-3-hydroxycyclobutyl)amino)-2-oxoacetyl)-1,2,4-trimethyl-1H-pyrrole-3-carboxamide]
CC50 at 7 days [1]: > 30 µM
EC50 [2]: < 50 nM

Cc1cc(NC(=O)c2c(C)c(C(=O)C(=O)N[C@H](CO)C(=O)O)n(C)c2C)ccc1F [Example 33, (2-(4-((4-fluoro-3-methylphenyl)carbamoyl)-1,3,5-trimethyl-1H-pyrrol-2-yl)-2-oxoacetyl)-D-serine]
CC50 at 7 days [1]: > 30 µM
EC50 [2]: > 1000 nM

Cc1cc(NC(=O)c2c(C)c(C(=O)C(=O)N[C@H]3CC[C@H](O)CC3)n(C)c2C)cnc1F [Example 175, N-(6-fluoro-5-methylpyridin-3-yl)-5-(2-(((1r,4r)-4-hydroxycyclohexyl)amino)-2-oxoacetyl)-1,2,4-trimethyl-1H-pyrrole-3-carboxamide]
CC50 at 7 days [1]: > 30 µM
EC50 [2]: 50 to 499 nM

COc1c(C(=O)Nc2ccc(F)c(F)c2)c(C)n(C)c1C(=O)C(=O)NCC(C)(C)O [Example 382, N-(3,4-difluorophenyl)-5-(2-((2-hydroxy-2-methylpropyl)amino)-2-oxoacetyl)-4-methoxy-1,2-dimethyl-1H-pyrrole-3-carboxamide]
CC50 at 7 days [1]: > 30 µM
EC50 [2]: > 1000 nM

Cc1c(C(=O)Nc2ccc(F)c(F)c2)c2n(c1C(=O)C(=O)NC1(CO)CC(F)(F)C1)CCCC2 [Example 459, 3-(2-((3,3-difluoro-1-(hydroxymethyl)cyclobutyl)amino)-2-oxoacetyl)-N-(3,4-difluorophenyl)-2-methyl-5,6,7,8-tetrahydroindolizine-1-carboxamide]
CC50 at 7 days [1]: 5 to 30 µM
EC50 [2]: 50 to 499 nM

Nc1ncc(CNC(=O)C(=O)c2c(Cl)c(C(=O)Nc3ccc(F)c(F)c3)c3n2CCC3)s1 [Example 569, 5-(2-(((2-aminothiazol-5-yl)methyl)amino)-2-oxoacetyl)-6-chloro-N-(3,4-difluorophenyl)-2,3-dihydro-1H-pyrrolizine-7-carboxamide]
CC50 at 7 days [1]: > 30 µM
EC50 [2]: < 50 nM

Cc1c(C(=O)Nc2ccnc(F)c2)c(C)n(C)c1C(=O)C(=O)NC12CC3CC(CC1C3)C2 [Example 90, N-(2-fluoropyridin-4-yl)-5-(2-(((2R,3as,5S,6as)-hexahydro-2,5-methanopentalen-3a(1H)-yl)amino)-2-oxoacetyl)-1,2,4-trimethyl-1H-pyrrole-3-carboxamide]
CC50 at 7 days [1]: 5 to 30 µM
EC50 [2]: < 50 nM

Cc1cc(NC(=O)c2c(C)c(C(=O)C(=O)N[C@H](C(N)=O)[C@H](C)O)n(C)c2C)ccc1F [Example 57, 5-(2-(((2S,3S)-1-amino-3-hydroxy-1-oxobutan-2-yl)amino)-2-oxoacetyl)-N-(4-fluoro-3-methylphenyl)-1,2,4-trimethyl-1H-pyrrole-3-carboxamide]
CC50 at 7 days [1]: > 30 µM
EC50 [2]: 50 to 499 nM

CNC(=O)C(=O)c1c(C)c(C(=O)Nc2ccc(F)c(C)c2)c(C)n1C [Example 242, N-(4-fluoro-3-methylphenyl)-1,2,4-trimethyl-5-(2-(methylamino)-2-oxoacetyl)-1H-pyrrole-3-carboxamide]
CC50 at 7 days [1]: > 30 µM
EC50 [2]: 50 to 499 nM

Cc1cc(NC(=O)c2c(C)c(C(=O)C(=O)NC3(C)CC[C@H](O)[C@H](O)C3)n(C)c2C)ccc1F (stereo partly drawn) [Example 703, 5-(2-(((3R,4S)-3,4-dihydroxy-1-methylcyclohexyl)amino)-2-oxoacetyl)-N-(4-fluoro-3-methylphenyl)-1,2,4-trimethyl-1H-pyrrole-3-carboxamide]
CC50 at 7 days [1]: > 30 µM
EC50 [2]: < 50 nM

Cc1c(C(=O)Nc2ccc(F)c(Cl)c2)c(C)n(C)c1C(=O)C(=O)NC1CCC(F)(F)CC1 [Example 314, N-(3-chloro-4-fluorophenyl)-5-(2-((4,4-difluorocyclohexyl)amino)-2-oxoacetyl)-1,2,4-trimethyl-1H-pyrrole-3-carboxamide]
CC50 at 7 days [1]: 5 to 30 µM
EC50 [2]: < 50 nM

Cc1cc(NC(=O)c2c(C)c(C(=O)C(=O)NC(C)(C)C(N)=O)n(CCF)c2C)ccc1F [Example 117, 5-(2-((1-amino-2-methyl-1-oxopropan-2-yl)amino)-2-oxoacetyl)-N-(4-fluoro-3-methylphenyl)-1-(2-fluoroethyl)-2,4-dimethyl-1H-pyrrole-3-carboxamide]
CC50 at 7 days [1]: > 30 µM
EC50 [2]: 50 to 499 nM

Cc1cc(NC(=O)c2c(C)c(C(=O)C(=O)NC3(C)CCN(c4cccnn4)CC3)n(C)c2C)ccc1F [Example 728, N-(4-fluoro-3-methylphenyl)-1,2,4-trimethyl-5-(2-((4-methyl-1-(pyridazin-3-yl)piperidin-4-yl)amino)-2-oxoacetyl)-1H-pyrrole-3-carboxamide]
CC50 at 7 days [1]: > 30 µM
EC50 [2]: < 50 nM

Cc1nc(C(C)(NC(=O)C(=O)c2c(C)c(C(=O)Nc3ccc(F)c(C)c3)c(C)n2C)C2CC2)no1 (stereo not shown) [Example 716, 5-(2-((1-cyclopropyl-1-(5-methyl-1,2,4-oxadiazol-3-yl)ethyl)amino)-2-oxoacetyl)-N-(4-fluoro-3-methylphenyl)-1,2,4-trimethyl-1H-pyrrole-3-carboxamide]
CC50 at 7 days [1]: > 30 µM
EC50 [2]: < 50 nM

Cc1cc(NC(=O)c2c(C)c(C(=O)C(=O)NC(C)(C)CO)n(CCF)c2C)ccc1F [Example 116, N-(4-fluoro-3-methylphenyl)-1-(2-fluoroethyl)-5-(2-((1-hydroxy-2-methylpropan-2-yl)amino)-2-oxoacetyl)-2,4-dimethyl-1H-pyrrole-3-carboxamide]
CC50 at 7 days [1]: > 30 µM
EC50 [2]: < 50 nM

Cc1cc(NC(=O)c2c(C)c(C(=O)C(=O)N[C@H]3CC[C@H](N)CC3)n(C)c2C)ccc1F [Example 232, 5-(2-(((1r,4r)-4-aminocyclohexyl)amino)-2-oxoacetyl)-N-(4-fluoro-3-methylphenyl)-1,2,4-trimethyl-1H-pyrrole-3-carboxamide]
CC50 at 7 days [1]: > 30 µM
EC50 [2]: < 50 nM

CC(=O)N1CCC[C@H](NC(=O)C(=O)c2c(C)c(C(=O)Nc3ccc(F)c(C)c3)c(C)n2C)C1 [Example 641, (S)-5-(2-((1-acetylpiperidin-3-yl)amino)-2-oxoacetyl)-N-(4-fluoro-3-methylphenyl)-1,2,4-trimethyl-1H-pyrrole-3-carboxamide]
CC50 at 7 days [1]: > 30 µM
EC50 [2]: < 50 nM

Cc1cc(NC(=O)c2c(C)c(C(=O)C(=O)N[C@H](C)C(C)(C)C)n(C)c2C)ccc1F [Example 63, (R)-5-(2-((3,3-dimethylbutan-2-yl)amino)-2-oxoacetyl)-N-(4-fluoro-3-methylphenyl)-1,2,4-trimethyl-1H-pyrrole-3-carboxamide]
CC50 at 7 days [1]: > 30 µM
EC50 [2]: < 50 nM

Cc1cc(NC(=O)c2c(C)c(C(=O)C(=O)N[C@@H]3CCC[C@@H]3O)n(C)c2C)ccc1F [Example 146, N-(4-fluoro-3-methylphenyl)-5-(2-(((1R,2S)-2-hydroxxycyclopentyl)amino)-2-oxoacetyl)-1,2,4-trimethyl-1H-pyrrole-3-carboxamide]
CC50 at 7 days [1]: > 30 µM
EC50 [2]: < 50 nM

CC[C@@H](CO)NC(=O)C(=O)c1c(C)c(C(=O)Nc2cnc(F)c(C)c2)c(C)n1C [Example 186, (S)-N-(6-fluoro-5-methylpyridin-3-yl)-5-(2-((1-hydroxybutan-2-yl)amino)-2-oxoacetyl)-1,2,4-trimethyl-1H-pyrrole-3-carboxamide]
CC50 at 7 days [1]: > 30 µM
EC50 [2]: 50 to 499 nM
